Reference: US11932839B2, “Microengineered tissue barrier system” (Georgia Tech Research Corporation, priority 2019, dated 2024)

Test system: human astrocytes (HA)
Test: LCN2 expression (qRT-PCR) in human astrocytes stimulated with IL-1β
Assay type: cell-based
Conditions: 1 ng/mL or 10 ng/mL IL-1β, 20 h
Description: In order to compare the structure and function of human astrocytes (HA) in 2D and 3D cultures, HAs were seeded at a density of 1×10^6 cells/mL in Matrigel (Growth factor-reduced; Corning, NY, USA) coated 24-wells and in 3D Matrigel (5 mg/mL). After 1 day of culture, cells were stimulated with 1 ng/mL or 10 ng/mL of recombinant human interleukin-1-beta (IL-1β; Gibco, Grand Island, NY, USA) and incubated for another 20 h for analysis.
The gene expression level of the reactive gliosis marker in 2D or 3D cultured human astrocytes (HA) was confirmed through qRT-PCR analysis. To analyze glial reactivity of HA in 2D and 3D culture system (n=4), standard qRT-PCR was performed with a StepOnePlus Real-Time PCR system (Applied Biosystems) using TaqMan Fast Universal PCR Master Mix (Applied Biosystems). The target genes were assessed using commercially available primers, and the primers used in the experiment are shown in Table 2 below.

Q: What does the source list for “IL-1β: recombinant human interleukin-1-beta, an inflammatory cytokine”?
A: expression level of LCN2 (HA inside 3D Matrigel, FIG. 41): dose-dependently controlled; expression level of LCN2 (HA on 2D Matrigel-coated surface, FIG. 40): dose-dependently controlled
